Measurements: patent publication US20100249121A1, “USE OF TETRAMIC ACID DERIVATIVES FOR C[…]-TR[…]” (priority 2007, published 2010)

Experiments:
Format in all cases: in vivo
[1] = tested on: Tomato Yellow Leaf Curl Virus (TYLCV), virus-transferring vector Bemisia argentifolii; assay: Example 1: field plots of tomatoes treated against the vector, virus infestation scored; settings: 72 g of a.i./ha, 200 SC, four applications at 7-day intervals, 25 days after the 4th treatment, TYLCV on tomatoes
Protocol: In three replications, plots of a size of 7.5 m^2 with tomatoes of the cultivar “Jumbo” are treated against the virus-transferring vector Bemisia argentifolii. Application is carried out using a motor-operated knapsack sprayer. The active compound example (I-2) (240 SC) in a tank mix with 0.186% a.i. soya oil Natur'L Oleo (OL 930) and the commercial standard imidacloprid (200 SC) are applied at the stated application rates. Four applications are carried out at intervals of in each case 7 days using a water application rate of in each case 300 l, 300 l, 500 l and 600 l/ha.
Evaluation is carried out 25 days after the 4th treatment by scoring the virus infestation with the Tomato Yellow Leaf Curl Virus (TYLCV) on the plants.
In the control, 11.7 of 15 plants were infected by the TYLCV.

[2] = tested on: Tomato Yellow Leaf Curl Virus (TYLCV), virus-transferring vector Bemisia argentifolii; assay: Example 2: field plots of tomatoes treated against the vector, virus infestation scored; settings: 72 g of a.i./ha, 200 SC, three applications at 7-day intervals, 14 days after the 3rd treatment, TYLCV on tomatoes
Protocol: In three replications, plots of a size of 7.5 m^2 with tomatoes of the cultivar “Jumbo” are treated against the virus-transferring vector Bemisia argentifolii. Application is carried out using a pressurized air-operated knapsack sprayer. The active compound example (I-2) (240 SC) in a tank mix with 0.186% a.i. soya oil Natur'L Oleo (OL 930) and the commercial standard imidacloprid (200 SC) are applied at the stated application rates. Three applications are carried out at intervals of in each case 7 days. The water application rates are 300 l/ha, 400 l/ha and 600 l/ha.
Evaluation is carried out 14 days after the 3rd treatment by scoring the virus infestation with the Tomato Yellow Leaf Curl Virus (TYLCV) on the plants.
All 18 plants in the control were infected by the TYLCV.

[3] = tested on: Bean Golden Mosaic Virus (BGMV), virus-transferring vector Bemisia argentifolii; assay: Example 3: field plots of bush beans treated against the vector, virus infestation scored; settings: 72 g of a.i./ha, 200 SC, three applications at 7-day intervals, 16 days after the first treatment, BGMV on bush beans
Protocol: In three replications, plots of a size of 12 m^2 with bush beans of the cultivar “Carioca” are treated against the virus-transferring vector Bemisia argentifolii. Application is carried out using a pressurized air-operated knapsack sprayer. The active compound example (I-2) (240 SC) in a tank mix with 0.186% a.i. soya oil Natur'L Oleo (OL 930) and the commercial standard imidacloprid (200 SC) are applied at the stated application rates. Three applications are carried out at intervals of in each case 7 days. The water application rate is in each case 300 l/ha.
Evaluation is carried out 16 days after the first treatment by scoring the virus infestation with the Bean Golden Mosaic Virus (BGMV) on the plants.
All 10 plants in the control were infected by the BGMV.

[4] = tested on: Tomato Spotted Wilt Virus (TSWV); assay: Example 4: field plots of tomatoes, tank mix versus single actives, virus infection scored; settings: 72 g of a.i./ha, SC 200 on its own, four applications at 7-day intervals, 25 days after the treatment
Description: The expected activity for a given combination of two active compounds can be calculated according to S. R. Colby, Weeds 15 (1967), 20-22 as follows:
If • X is the degree of control, expressed in % of the untreated control, when using the active compound A at an application rate of m g/ha or in a concentration of m ppm, • Y is the degree of control, expressed in % of the untreated control, when using the active compound B at an application rate of n g/ha or in a concentration of n ppm and • E is the degree of control, expressed in % of the untreated control, when using the active compounds A and B at application rates of m and n g/ha or in a concentration of m and n ppm, then
If the actual degree of control is greater than the calculated degree of control, the control of the combination is superadditive, i.e. a synergistic effect is present. In this case, the degree of control actually observed must be greater than the value for the expected kill rate (E) calculated using the formula given above.
After the desired period of time, the control in % is determined. 100% means that no plants have been infected by viruses; 0% means that all plants have been infected by viruses.
In three replications, plots of a size of 7.5 m^2 with tomatoes of the cultivar “Jumbo” are treated against the virus-transferring vector Bemisia argentifolii using a compressed air-operated sprayer. […]

O=[N+]([O-])/N=C1\NCCN1Cc1ccc(Cl)nc1 [imidacloprid]
Degree of control according to Abbott (%) 25 d [1]: 40.0% | Degree of control according to Abbott (%) 14 d [2]: 33% | Degree of control according to Abbott (%) 16 d [3]: 60.0% | Degree of control according to Abbott (%) 25 d [4]: 80%
